Patent publication US6048854A, “2,3-diaminopropionic acid derivative” (Sumitomo Pharmaceuticals Company, Limited, priority 1993, dated 2000)

Tested on: platelet aggregation
Experiment: Platelet aggregation inhibitory activity (ADP-induced, human platelet rich plasma)
Format: cell-based
Protocol: The blood was collected from the elbow vein of a normal volunteer with mixing thereof with 1/10 volume of 3.8% sodium citrate, and the blood was centrifuged at 1000 rpm (150 g) for 10 minutes to give the supernatant as platelet rich plasma (PRP). To PRP (200 μl) was added a test compound solution (2 μl), and the mixture was incubated with stirring at 1000 rpm at 37° C. for two minutes, and thereto was added a platelet aggregator, adenosine diphosphate (ADP, 22 μl) at a final concentration of 3 μg/ml. The platelet aggregation activity was determined by nephelometric analysis using a Hematracer (manufactured by Niko Bioscience, Ltd.). The test results of platelet aggregation inhibitory activity are expressed by IC50, which is a concentration of the test compound being required to inhibit the platelet aggregation reaction by 50%.
The compounds of Examples 18 to 70 were tested in the same manner as in Example 17.
The compounds of Examples 72 to 116 were tested in the same manner as in Example 17.

[1] = Table 1, human PRP, ADP 3 μg/ml, 37° C.
[2] = Homo sapiens, Table 2, same manner as Example 17

| IC50 [1] [nM] | IC50 [2] [nM] | Compound |
| --- | --- | --- |
| 162 | – | CCCCS(=O)(=O)N[C@@H](CNC(=O)CCNC(=O)CCC1CCNCC1)C(=O)O [Example 3, (2S)-2-butanesulfonylamino-3-(3-(3-(4-piperidyl)propanoylamino)propanoylamino)propanoic Acid] |
| 513 | – | O=C(CCC1CCNCC1)NCCC(=O)NC[C@H](NC(=O)OCc1ccccc1)C(=O)O [Example 4, (2S)-2-Benzyloxycarbonylamino-3-(3-(3-(4-piperidyl)propanoylamino)propanoylamino)propanoic Acid] |
| 2990 | – | CCCCS(=O)(=O)N[C@@H](CNC(=O)CNC(=O)CCCC1CCNCC1)C(=O)O [Example 5, (2S)-2-butanesulfonylamino-3-(N-(4-(4-piperidyl)butanoyl)glycylamino)propanoic Acid] |
| 376 | – | O=C(CCC(=O)NC[C@H](NS(=O)(=O)c1ccccc1)C(=O)O)NCCC1CCNCC1 [Example 6, (2S)-2-benzenesulfonylamino-3-(N-(2-(4-piperidyl)ethyl)succinamylamino)propanoic Acid] |
| 1220 | – | CCCCS(=O)(=O)N[C@@H](CNC(=O)CNC(=O)[C@H](C)N(C)C(=O)CCC1CCNCC1)C(=O)O [Example 7, (2S)-2-butanesulfonylamino-3-(N-(3-(4-piperidyl)propanoyl)-N-methyl-L-alanylglycylamino)propanoic Acid] |
| 583 | – | CCCCS(=O)(=O)N[C@@H](CNC(=O)CNC(=O)CCCCCC1CCNCC1)C(=O)O [Example 8, (2S)-2-butanesulfonylamino-3-(N-(6-(4-piperidyl)hexanoyl)glycylamino)propanoic Acid] |
| 3630 | – | CCCCS(=O)(=O)N[C@H](CNC(=O)CCNC(=O)CCC1CCNCC1)C(=O)O [Example 9, (2R)-2-butanesulfonylamino-3-(3-(3-(4-piperidyl)propanoylamino)propanoylamino)propanoic Acid] |
| 232 | – | O=C(CCC1CCNCC1)NCCC(=O)NC[C@H](NS(=O)(=O)Cc1ccccc1)C(=O)O [Example 10, (2S)-2-benzylsulfonylamino-3-(3-(3-(4-piperidyl)propanoylamino)propanoylamino)propanoic Acid] |
| 8730 | – | CCCCC(=O)N[C@@H](CNC(=O)CCNC(=O)CCC1CCNCC1)C(=O)O [Example 11, (2S)-2-pentanoylamino-3-(3-(3-(4-piperidyl)propanoylamino)propanoylamino)propanoic Acid] |
| 1370 | – | CCCCS(=O)(=O)N[C@@H](CNC(=O)CNC(=O)CCCCC1CCNCC1)C(=O)O [Example 12, (2S)-2-butanesulfonylamino-3-(N-(5-(4-piperidyl)pentanoyl)glycylamino)propanoic Acid] |
| 1810 | – | CCCCS(=O)(=O)N[C@@H](CNC(=O)CCNC(=O)CCCCC1CCNCC1)C(=O)O [Example 13, (2S)-2-butanesulfonylamino-3-(3-(5-(4-piperidyl)pentanoylamino)propanoylamino)propanoic Acid] |
| 6140 | – | CCCCS(=O)(=O)N[C@@H](CNC(=O)CNC(=O)[C@H](Cc1ccc(OC)cc1)NC(=O)CCC1CCNCC1)C(=O)O [Example 14, (2S)-2-butanesulfonylamino-3-(N-(3-(4-piperidyl)propanoyl)-O-methyl-L-tyrosylglycylamino)propanoic Acid] |
| 5240 | – | CCCCS(=O)(=O)N[C@@H](CNC(=O)CNC(=O)[C@H](C)NC(=O)CCC1CCNCC1)C(=O)O [Example 15, (2S)-2-butanesulfonylamino-3-(N-(3-(4-piperidyl)propanoyl)-L-alanylglycylamino)propanoic Acid] |
| 2530 | – | COc1ccc(C[C@H](NC(=O)CCC2CCNCC2)C(=O)NCC(=O)NC[C@H](NS(C)(=O)=O)C(=O)O)cc1 [Example 16, (2S)-2-methanesulfonylamino-3-(N-(3-(4-piperidyl)propanoyl)-O-methyl-L-tyrosylglycylamino)propanoic Acid] |
| – | 30 | Cc1ccccc1S(=O)(=O)N[C@@H](CNC(=O)CCNC(=O)CCC1CCNCC1)C(=O)O [Example 24, (2S)-2-(2-methyl)benzenesulfonylamino-3-(3-(3-(4-piperidyl)propanoylamino)propanoylamino)propanoic Acid] |
| – | 22 | Cc1cccc(S(=O)(=O)N[C@@H](CNC(=O)CCNC(=O)CCC2CCNCC2)C(=O)O)c1 [Example 25, (2S)-2-(3-methyl)benzenesulfonylamino-3-(3-(3-(4-piperidyl)propanoylamino)propanoylamino)propanoic Acid] |
| – | 29 | Cc1ccc(S(=O)(=O)N[C@@H](CNC(=O)CCNC(=O)CCC2CCNCC2)C(=O)O)cc1 [Example 26, (2S)-2-(4-methyl)benzenesulfonylamino-3-(3-(3-(4-piperidyl)propanoylamino)propanoylamino)propanoic Acid] |

| IC50 [1] [nM] | IC50 [2] [nM] | Compound |
| --- | --- | --- |
| – | 26 | O=C(CCC1CCNCC1)NCCC(=O)NC[C@H](NS(=O)(=O)c1ccccc1C(F)(F)F)C(=O)O [Example 27] |
| – | 58 | O=C(CCC1CCNCC1)NCCC(=O)NC[C@H](NS(=O)(=O)c1cccc(C(F)(F)F)c1)C(=O)O [Example 28, (2S)-3-(3-(3-(4-piperidyl)propanoylamino)propanoylamino)-2-(3-trifluoromethyl)benzenesulfonylaminopropanoic Acid] |
| – | 170 | O=C(CCC1CCNCC1)NCCC(=O)NC[C@H](NS(=O)(=O)c1ccc(C(F)(F)F)cc1)C(=O)O [Example 29, (2S)-3-(3-(3-(4-piperidyl)propanoylamino)propanoylamino)-2-(4-trifluoromethyl)benzenesulfonylaminopropanoic Acid] |
| – | 16 | O=C(CCC1CCNCC1)NCCC(=O)NC[C@H](NS(=O)(=O)c1ccccc1[N+](=O)[O-])C(=O)O [Example 30, (2S)-2-(2-nitro)benzenesulfonylamino-3-(3-(3-(4-piperidyl)propanoylamino)propanoylamino)propanoic Acid] |
| – | 142 | O=C(CCC1CCNCC1)NCCC(=O)NC[C@H](NS(=O)(=O)c1cccc([N+](=O)[O-])c1)C(=O)O [Example 31, (2S)-2-(3-nitro)benzenesulfonylamino-3-(3-(3-(4-piperidyl)propanoylamino)propanoylamino)propanoic Acid] |
| – | 151 | O=C(CCC1CCNCC1)NCCC(=O)NC[C@H](NS(=O)(=O)c1ccc([N+](=O)[O-])cc1)C(=O)O [Example 32, (2S)-2-(4-nitro)benzenesulfonylamino-3-(3-(3-(4-piperidyl)propanoylamino)propanoylamino)propanoic Acid] |
| – | 15 | Cc1cc(C)c(S(=O)(=O)N[C@@H](CNC(=O)CCNC(=O)CCC2CCNCC2)C(=O)O)c(C)c1 [Example 33, (2S)-3-(3-(3-(4-piperidyl)propanoylamino)propanoylamino)-2-(2,4,6-trimethyl)benzenesulfonylaminopropanoic Acid] |
| – | 126 | O=C(CCC1CCNCC1)NCCC(=O)NC[C@H](NS(=O)(=O)c1c(F)c(F)c(F)c(F)c1F)C(=O)O [Example 34, (2S)-2-(2,3,4,5,6-pentafluoro)benzenesulfonylamino-3-(3-(3-(4-piperidyl)propanoylamino)propanoylamino)propanoic Acid] |
| – | 25 | O=C(CCC1CCNCC1)NCCC(=O)NC[C@H](NS(=O)(=O)c1ccc(F)cc1)C(=O)O [Example 35, (2S)-2-(4-fluoro)benzenesulfonylamino-3-(3-(3-(4-piperidyl)propanoylamino)propanoylamino)propanoic Acid] |
| – | 62 | O=C(CCC1CCNCC1)NCCC(=O)NC[C@H](NS(=O)(=O)c1ccc(Cl)cc1)C(=O)O [Example 36, (2S)-2-(4-chloro)benzenesulfonylamino-3-(3-(3-(4-piperidyl)propanoylamino)propanoylamino)propanoic Acid] |
| – | 48 | O=C(CCC1CCNCC1)NCCC(=O)NC[C@H](NS(=O)(=O)c1ccc(Br)cc1)C(=O)O [Example 37, (2S)-2-(4-bromo)benzenesulfonylamino-3-(3-(3-(4-piperidyl)propanoylamino)propanoylamino)propanoic Acid] |
| – | 35 | CCc1ccc(S(=O)(=O)N[C@@H](CNC(=O)CCNC(=O)CCC2CCNCC2)C(=O)O)cc1 [Example 38, (2S)-2-(4-ethyl)benzenesulfonylamino-3-(3-(3-(4-piperidyl)propanoylamino)propanoylamino)propanoic Acid] |
| – | 185 | CC(C)(C)c1ccc(S(=O)(=O)N[C@@H](CNC(=O)CCNC(=O)CCC2CCNCC2)C(=O)O)cc1 [Example 39, (2S)-2-(4-t-butyl)benzenesulfonylamino-3-(3-(3-(4-piperidyl)propanoylamino)propanoylamino)propanoic Acid] |
| – | 3 | COc1ccc(S(=O)(=O)N[C@@H](CNC(=O)CCNC(=O)CCC2CCNCC2)C(=O)O)cc1 [Example 40, (2S)-2-(4-methoxy)benzenesulfonylamino-3-(3-(3-(4-piperidyl)propanoylamino)propanoylamino)propanoic Acid] |
| – | 35 | O=C(CCC1CCNCC1)NCCC(=O)NC[C@H](NS(=O)(=O)c1cccc2ccccc12)C(=O)O [Example 41, (2S)-2-(1-naphthalene)sulfonylamino-3-(3-(3-(4-piperidyl)propanoylamino)propanoylamino)propanoic Acid] |
| – | 233 | CN(C)c1cccc2c(S(=O)(=O)N[C@@H](CNC(=O)CCNC(=O)CCC3CCNCC3)C(=O)O)cccc12 [Example 42, (2S)-2-(5-dimethylamino-1-naphthalene)sulfonylamino-3-(3-(3-(4-piperidyl)propanoylamino)propanoylamino)propanoic Acid] |
